From patent US11517530B2, “Therapeutic agents specifically delivered by exosomes for cancer treatment” (The Board of Trustees of the Leland Stanford Junior …, priority 2017, dated 2022)

How the values were obtained:
[1] = tested on: orthotopically implanted BT474 tumors; assay: In vivo assay for EXO-DEPT EV functionality, tumor growth; parameters: species or system nu/nu mice; details: 2×10^9 EVs i.p., CNOB 3.3 mg/kg i.v.
Protocol: In vivo assays for EXO-DEPT EV functionality. All animal experiments were performed in accordance with protocols approved by Stanford University Institutional Animal Care and Use Committee. Number of mice required for this study was determined by power analysis using the G*Power 3.1.5 power calculator (Universitat Dusseldorf) for F-tests of one-way ANOVA by setting Type I error at 5% (alpha=0.05); power was kept at 0.8, and the number of treatment groups=5. The effect size f was calculated as 0.707. This number was then used to determine total sample size of 30 with 6 mice per treatment group (n=6). […] Tumor size was monitored by caliper at two-day intervals, and tumor volume was calculated using the formula: tumor width^2×its length/2. […]
The effect of administration of EXO-DEPT EVs along with CNOB was tested on orthotopically implanted BT474 tumors in athymic mice; the treatment schedule (FIG. 4E) was guided by earlier PK/PD studies. […] After measurable implanted tumors in mice were detected, they were randomly allocated into 5 treatment groups (n=6): untreated; loaded EVs only; CNOB only; undirected loaded EVs+CNOB; and EXO-DEPT-EVs+CNOB. […]
Each mouse was measured at nine time periods, days 0,3,7,11,16,19,24,28,32. A linear regression of tumor burden versus day was fit for each mouse, by ordinary least squares, and its slope calculated. s[i]=slope of mouse[i]'s linear regression

[2] = tested on: 4T1 murine mammary cells that endogenously generated HChrR6 enzyme; details: initial studies; cited from earlier work
[3] = earlier PK/PD studies; cited from earlier work

Row | SMILES | tumor growth ([1]; versus controls) | mean slope of linear regression of tumor burden versus day ([1]; days 0-32) | survival of mice [2] | half-life in plasma [3] [h]
1 | O=c1c(Cl)c2oc3cc([N+](=O)[O-])ccc3nc-2c2ccccc12 [CNOB, 6-chloro-9-nitro-5-oxo-5H-benzo-(a)-phenoxazine] | no significant difference | 7.24 | marked improvement | 
2 | Nc1ccc2nc3c4ccccc4c(=O)c(Cl)c-3oc2c1 [MCHB, 9-p amino-6-chloro-5H-benzo′a″phenoxazine-5-one] |  |  |  | 8.3
